Measured values published in ChEMBL document CHEMBL3091350, “Synthesis and evaluation of the antimalarial, anticancer, and caspase 3 activities of tetraoxane dimers” (Bioorg Med Chem, 2013).
Calls of active or inactive are those of the source. The rule behind the calls is not given here.

Key:
Plasmodium berghei [1] = assay: Antimalarial activity against Plasmodium berghei ANKA infected in po dosed mouse assessed as inhibition of parasitemia administered for 3 days post-infection measured on day 4 by Giemsa staining; format: functional
Plasmodium berghei [2] = assay: Antimalarial activity against Plasmodium berghei ANKA infected in mouse assessed as inhibition of parasitemia at 3 mg/kg, po administered for 3 days post-infection measured on day 4 by Giemsa staining relative to control; format: functional
Plasmodium berghei [3] = assay: Antimalarial activity against Plasmodium berghei ANKA infected in mouse assessed as inhibition of parasitemia at 10 mg/kg, po administered for 3 days post-infection measured on day 4 by Giemsa staining relative to control; format: functional
Plasmodium berghei [4] = assay: Antimalarial activity against Plasmodium berghei ANKA infected in mouse assessed as inhibition of parasitemia at 1 mg/kg, po administered for 3 days post-infection measured on day 4 by Giemsa staining relative to control; format: functional
Plasmodium falciparum [5] = assay: Antimalarial activity against chloroquine-sensitive Plasmodium falciparum 3D7 assessed as parasite growth inhibition after 48 hrs by SYBR green-1 dye-based fluorescence assay; format: functional, organism-based; details: 3D7, 48 h
Plasmodium berghei [6] = assay: Antimalarial activity against Plasmodium berghei ANKA infected in mouse assessed as inhibition of parasitemia at 30 mg/kg, po administered for 3 days post-infection measured on day 4 by Giemsa staining relative to control; format: functional
[7] = Therapeutic index, ratio of IC50 for human KB cells to IC50 for chloroquine-resistant Plasmodium falciparum K1; format: cell-based; details: read-out: Ratio IC50
Plasmodium falciparum [8] = assay: Antimalarial activity against chloroquine-resistant Plasmodium falciparum K1 assessed as parasite growth inhibition after 48 hrs by SYBR green-1 dye-based fluorescence assay; format: functional, organism-based; details: K1, 48 h
KB = assay: Cytotoxicity against human KB cells assessed as cell viability after 24 hrs by MTT assay; format: functional, cell-based
HL-60 [9] = assay: Cytotoxicity against human HL60 cells assessed as cell viability after 24 hrs by MTT assay; format: functional, cell-based; details: HL-60, 24 h
[10] = Cytotoxicity against human HT29-AK cells assessed as cell viability after 24 hrs by MTT assay; format: functional, cell-based
HL-60 [11] = assay: Induction of apoptosis in human HL60 cells assessed as activation of caspase-3 activity at 0.2 to 0.6 uM after 24 hrs by flow cytometric analysis; format: functional, cell-based
Plasmodium falciparum [12] = assay: Antimalarial activity against chloroquine-sensitive Plasmodium falciparum 3D7; format: functional, organism-based
HL-60 [13] = assay: Induction of apoptosis in human HL60 cells assessed as activation of caspase-3 activity at 10.1 to 30.3 uM after 24 hrs by flow cytometric analysis; format: functional, cell-based
HL-60 [14] = assay: Induction of apoptosis in human HL60 cells assessed as activation of caspase-3 activity at 9.4 to 28.2 uM after 24 hrs by flow cytometric analysis; format: functional, cell-based

## O=C(CC1CCC2(CC1)OOC1(OO2)C2CC3CC(C2)CC1C3)NCCCN1CCN(CCCNC(=O)CC2CCC3(CC2)OOC2(OO3)C3CC4CC(C3)CC2C4)CC1 (stereo unspecified)
Plasmodium berghei [1]
  ED50: 7.7 mg/kg
Plasmodium berghei [2]
  inhibition in vivo at 3 mg/kg: 43.2%
Plasmodium berghei [3]
  inhibition in vivo at 10 mg/kg: 46.2%
Plasmodium berghei [4]
  inhibition in vivo at 1 mg/kg: 36.1%
Plasmodium falciparum [5]
  IC50: 3.5 nM
Plasmodium berghei [6]
  inhibition in vivo at 30 mg/kg: 64.5%

## O=C(CC1CCC2(CC1)OOC1(OO2)C2CC3CC(C2)CC1C3)NCCCCNC(=O)CC1CCC2(CC1)OOC1(OO2)C2CC3CC(C2)CC1C3 (stereo unspecified)
[7]
  selectivity ratio: 1870
Plasmodium berghei [1]
  ED50: 16.1 mg/kg
Plasmodium falciparum [8]
  IC50: 2.7 nM
Plasmodium berghei [2]
  inhibition in vivo at 3 mg/kg: 27.5%
Plasmodium berghei [3]
  inhibition in vivo at 10 mg/kg: 49.6%
Plasmodium berghei [4]
  inhibition in vivo at 1 mg/kg: 22.1%
Plasmodium falciparum [5]
  IC50: 11.2 nM
Plasmodium berghei [6]
  inhibition in vivo at 30 mg/kg: 54.8%
KB
  IC50: 5040 nM

## O=C(CC1CCC2(CC1)OOC1(CCCCC1)OO2)NCCCN1CCN(CCCNC(=O)CC2CCC3(CC2)OOC2(CCCCC2)OO3)CC1
Plasmodium berghei [1]
  ED50: 6.4 mg/kg
Plasmodium berghei [2]
  inhibition in vivo at 3 mg/kg: 46.1%
Plasmodium berghei [3]
  inhibition in vivo at 10 mg/kg: 54.3%
Plasmodium berghei [4]
  inhibition in vivo at 1 mg/kg: 29.9%
Plasmodium falciparum [5]
  IC50: 47.1 nM
Plasmodium berghei [6]
  inhibition in vivo at 30 mg/kg: 63.9%

## O=C(CC1CCC2(CC1)OOC1(CCCCC1)OO2)NCCCNC(=O)CC1CCC2(CC1)OOC1(CCCCC1)OO2
Plasmodium falciparum [5]
  IC50: 21.3 nM

## COc1cc([C@@H]2c3cc4c(cc3[C@H](O)[C@H]3COC(=O)[C@H]23)OCO4)cc(OC)c1OC [PODOFILOX]
KB
  IC50: 11.7 nM

## CC1(CCC(=O)Nc2cccc(N)c2)OOC2(CCCCC2)OO1
HL-60 [9]
  IC50: 31200 nM
[10]
  IC50: 75800 nM
Plasmodium falciparum [5]
  IC50: 102 nM

## C[C@H]1[C@@H](O)O[C@@H]2O[C@@]3(C)CC[C@H]4[C@H](C)CC[C@@H]1[C@@]24OO3 [ARTENIMOL]
HL-60 [9]
  IC50: 400 nM
[10]
  IC50: 66100 nM
HL-60 [11]
  Activity: Active
Plasmodium falciparum [5]
  IC50: 3.5 nM

## CC1(CCC(=O)NCc2cccc(CNC(=O)CCC3(C)OOC4(CCCCC4)OO3)c2)OOC2(CCCCC2)OO1 (stereo unspecified)
[7]
  selectivity ratio: 452
HL-60 [9]
  IC50: 34300 nM
[10]
  IC50: 32800 nM
Plasmodium falciparum [8]
  IC50: 136 nM
Plasmodium falciparum [5]
  IC50: 416 nM
KB
  IC50: 63100 nM

## C[C@H]1[C@H](OC(=O)CCC(=O)O)O[C@@H]2O[C@@]3(C)CC[C@H]4[C@H](C)CC[C@@H]1[C@@]24OO3 [ARTESUNATE]
HL-60 [9]
  IC50: 2000 nM
Plasmodium berghei [1]
  ED50: 1.6 mg/kg
[10]
  IC50: 38800 nM
Plasmodium berghei [2]
  inhibition in vivo at 3 mg/kg: 62.4%
Plasmodium berghei [3]
  inhibition in vivo at 10 mg/kg: 95.2%
Plasmodium berghei [4]
  inhibition in vivo at 1 mg/kg: 38.5%
Plasmodium falciparum [5]
  IC50: 1.6 nM
Plasmodium berghei [6]
  inhibition in vivo at 30 mg/kg: 99.7%

## CC1(CCC(=O)NCCCN2CCN(CCCNC(=O)CCC3(C)OOC4(CCCCC4)OO3)CC2)OOC2(CCCCC2)OO1 (stereo unspecified)
[7]
  selectivity ratio: 40.8
Plasmodium berghei [1]
  ED50: > 30 mg/kg
Plasmodium falciparum [8]
  IC50: 612 nM
Plasmodium berghei [2]
  inhibition in vivo at 3 mg/kg: 22.3%
Plasmodium berghei [3]
  inhibition in vivo at 10 mg/kg: 21.4%
Plasmodium berghei [4]
  inhibition in vivo at 1 mg/kg: 2.1%
Plasmodium falciparum [5]
  IC50: 47.5 nM
Plasmodium berghei [6]
  inhibition in vivo at 30 mg/kg: 33.2%
KB
  IC50: 25000 nM

## CCN(CC)CCCC(C)Nc1ccnc2cc(Cl)ccc12 (stereo unspecified) [CHLOROQUINE]
KB
  IC50: 97700 nM

## O=C(CC1CCC2(CC1)OOC1(OO2)C2CC3CC(C2)CC1C3)NCCNC(=O)CC1CCC2(CC1)OOC1(OO2)C2CC3CC(C2)CC1C3 (stereo unspecified)
[7]
  selectivity ratio: 7040
Plasmodium falciparum [8]
  IC50: 8.9 nM
Plasmodium falciparum [5]
  IC50: 16.9 nM
KB
  IC50: 62700 nM

## CN1CCN(C2CCN(C(=O)CC3CCC4(CC3)OOC3(OO4)C4CC5CC(C4)CC3C5)CC2)CC1 (stereo unspecified)
Plasmodium falciparum [12]
  IC50: 0.9 nM

## O=C(CC1CCC2(CC1)OOC1(OO2)C2CC3CC(C2)CC1C3)NCCCNC(=O)CC1CCC2(CC1)OOC1(OO2)C2CC3CC(C2)CC1C3 (stereo unspecified)
[7]
  selectivity ratio: 2530
HL-60 [9]
  IC50: 20200 nM
[10]
  IC50: 22900 nM
Plasmodium falciparum [8]
  IC50: 24.6 nM
HL-60 [13]
  Activity: Active
Plasmodium falciparum [5]
  IC50: 4.7 nM
KB
  IC50: 62100 nM

## O=C(CC1CCC2(CC1)OOC1(CCCCC1)OO2)NCCCCNC(=O)CC1CCC2(CC1)OOC1(CCCCC1)OO2
Plasmodium falciparum [5]
  IC50: 28.9 nM

## O=C(CC1CCC2(CC1)OOC1(OO2)C2CC3CC(C2)CC1C3)NCc1cccc(CNC(=O)CC2CCC3(CC2)OOC2(OO3)C3CC4CC(C3)CC2C4)c1 (stereo unspecified)
HL-60 [9]
  IC50: 18800 nM
[10]
  IC50: 90200 nM
HL-60 [14]
  Activity: Active
Plasmodium falciparum [5]
  IC50: 4 nM

## O=C(CC1CCC2(CC1)OOC1(CCCCC1)OO2)NCc1cccc(CNC(=O)CC2CCC3(CC2)OOC2(CCCCC2)OO3)c1
Plasmodium falciparum [5]
  IC50: 38.6 nM

## O=C(CC1CCC2(CC1)OOC1(OO2)C2CC3CC(C2)CC1C3)Nc1cccc(NC(=O)CC2CCC3(CC2)OOC2(OO3)C3CC4CC(C3)CC2C4)c1 (stereo unspecified)
[7]
  selectivity ratio: 1320
HL-60 [9]
  IC50: > 100000 nM
[10]
  IC50: 92500 nM
Plasmodium falciparum [8]
  IC50: 102 nM
Plasmodium falciparum [5]
  IC50: 57.2 nM
KB
  IC50: 134000 nM

## O=C(CC1CCC2(CC1)OOC1(OO2)C2CC3CC(C2)CC1C3)Nc1ccc(NC(=O)CC2CCC3(CC2)OOC2(OO3)C3CC4CC(C3)CC2C4)cc1 (stereo unspecified)
HL-60 [9]
  IC50: > 100000 nM
[10]
  IC50: 77600 nM
Plasmodium falciparum [5]
  IC50: 58.4 nM
